These results are taken from patent US8563730B2, “Pyrazole and fused pyrazole glucokinase activators” (Takeda San Diego, Inc., priority 2008, dated 2013).

Structures are written as SMILES. Read-outs that look alike come from different tables or passages of the source. A value given as a limit tells only on which side of the number the result lay.

The assay has as its target T1, GK (glucokinase, residues 12-465) (Homo sapiens, UniProt P35557).
T1 construct: I.D. No. 1 corresponds to residues 12-465 of glucokinase; made in house; host or cells: DH10b-T1r E. coli
T1 sequence (P35557 with tags, fused parts or gaps isoform P35557-2): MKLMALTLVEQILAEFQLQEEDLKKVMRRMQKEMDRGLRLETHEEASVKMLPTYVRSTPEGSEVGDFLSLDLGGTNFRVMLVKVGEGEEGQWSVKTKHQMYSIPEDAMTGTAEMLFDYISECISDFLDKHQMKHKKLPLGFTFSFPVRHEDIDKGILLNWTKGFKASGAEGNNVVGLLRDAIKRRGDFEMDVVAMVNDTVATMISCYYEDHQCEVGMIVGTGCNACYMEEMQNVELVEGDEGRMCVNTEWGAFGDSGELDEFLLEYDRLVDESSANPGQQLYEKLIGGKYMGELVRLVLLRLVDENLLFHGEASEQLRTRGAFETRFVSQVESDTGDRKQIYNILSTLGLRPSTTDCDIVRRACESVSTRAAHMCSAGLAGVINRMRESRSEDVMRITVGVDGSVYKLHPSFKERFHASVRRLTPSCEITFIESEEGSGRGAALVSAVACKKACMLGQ
The experiment in a line: enzymatic glucokinase activity assay (ATP consumption, KinaseGlo luminescence). It counts as biochemical. The settings on record: 5 μM ATP, 5 mM Glucose, reported as bins; for EC50: Kact = concentration that displays 50% of the maximal increase in GK activity, 60 min, room temperature, read-out: pKact. The text has this: The activity of compounds as glucokinase activators may be assayed in vitro, in vivo or in a cell line. Provided below is an enzymatic glucokinase activity assay.
Purified glucokinase may be obtained as follows. […] SEQ.
The expression of recombinant glucokinase protein may be carried out by transformation and growth of DH10b-T1r E. coli cells incorporating the (pFLAG-CTC) plasmid in LB media. Protein expression can be induced in this system by the addition of IPTG to the culture medium.
Recombinant protein may be isolated from cellular extracts by passage over Sepharose Q Fast Flow resin (Pharmacia). This partially purified GK extract may then be further purified by a second passage over Poros HQ10 (Applied Biosystems). The purity of GK may be determined on denaturing SDS-PAGE gel. Purified GK may then be concentrated to a final concentration of 20.0 mg/ml. After flash freezing in liquid nitrogen, the proteins can be stored at −78° C. in a buffer containing 25 mM TRIS-HCl pH 7.6, 50 mM NaCl, and 0.5 mM TCEP.
The activation properties of compounds for GK may be determined using a black 384-well-plate format under the following reaction conditions: 25 mM Hepes pH 7.2, 25 mM NaCl, 10 mM MgCl2, 0.01% Brij35, 1 mM DTT, 5 μM ATP, 5 mM Glucose 2% DMSO. The amount of ATP consumed may be determined quantitatively by addition of equal volume of luciferase reagent (luciferase+beetle luciferin—KinaseGlo Luminescent Kinase Assay kit from Promega). The luminescence intensity may be measured by using the Analyst HT from LJL Biosystems.
The reaction mixture may then be incubated at room temperature for 60 min, and quenched and developed by addition of 10 μL of luciferase reagent. Luminescence intensities of the resulting reaction mixtures may be measured after a 10 min incubation at room temperature. The luminescence intensity may be measured by using the Analyst HT from LJL Biosystems.
pKact and % ACTmax values may be calculated by non-linear curve fitting of the compound concentrations and luminescence intensities to a standard inhibition/activation equation.
On the technique in general: Kinase-Glo measures the ATP left after a reaction by luminescence.

The mark [1] stands for this setting: calculated maximal gain in GK enzyme activity at a saturating concentration of the compound, read-out: % ACTmax.

Turning to `O=C1CC[C@H](CC(C(=O)Nc2ncc(Cl)s2)n2ncc3c(S(=O)(=O)C4CC4)cccc32)C1` (stereo partly drawn) [Compound 11, N-(5-chlorothiazol-2-yl)-2-(4-(cyclopropylsulfonyl)-1H-indazol-1-yl)-3-((R)-3-oxocyclopentyl)propanamide], the EC50 was not above 0.316 µM. Moreover, under setting [1], the Emax was 101 to 105%.
The matching figures for `O=C(Nc1cnccn1)[C@H](CC1CCOCC1)n1ncc2c(S(=O)(=O)C3CC3)cccc21` [Compound 89, (S)-2-(4-(cyclopropylsulfonyl)-1H-indazol-1-yl)-N-(pyrazin-2-yl)-3-(tetrahydro-2H-pyran-4-yl)propanamide]: 1.58 to 3.16 µM and 101 to 105%.
Turning to `O=C(Nc1ccncn1)C(CC1CCOCC1)n1ncc2c(S(=O)(=O)C3CC3)cccc21` (stereo not drawn) [Compound 124, 2-(4-(cyclopropylsulfonyl)-1H-indazol-1-yl)-N-(pyrimidin-4-yl)-3-(tetrahydro-2H-pyran-4-yl)propanamide], the EC50 is 3.98 to 12.6 µM. Also, under setting [1], the Emax was not below 111%.
On to `O=C(Nc1cccc(F)n1)C(CC1CCOCC1)n1ncc2c(S(=O)(=O)C3CC3)cccc21` (stereo not drawn) [Compound 147, 2-(4-(cyclopropylsulfonyl)-1H-indazol-1-yl)-N-(6-fluoropyridin-2-yl)-3-(tetrahydro-2H-pyran-4-yl)propanamide], for which the EC50 lay in the range of 1.58 to 3.16 µM. The Emax under setting [1] was not below 111%.
Turning to `O=C1CC[C@H](C[C@H](C(=O)Nc2ncc(Cl)s2)n2ncc3c(S(=O)(=O)C4CC4)cccc32)C1` [Compound 114, (R)-N-(5-chlorothiazol-2-yl)-2-(4-(cyclopropylsulfonyl)-1H-indazol-1-yl)-3-((R)-3-oxocyclopentyl)propanamide], the EC50 is not above 0.316 µM. In addition, under setting [1], the Emax is 101 to 105%.
Turning to `O=C(Nc1ncc(F)s1)[C@H](CC1CCOCC1)n1ncc2c(S(=O)(=O)C3CC3)cc(F)cc21` [Compound 123, (S)-2-(4-(cyclopropylsulfonyl)-6-fluoro-1H-indazol-1-yl)-N-(5-fluorothiazol-2-yl)-3-(tetrahydro-2H-pyran-4-yl)propanamide], the EC50 is not above 0.316 µM. In addition, the Emax under setting [1] was not below 111%.
In the case of `NC(=O)c1ccc(NC(=O)C(CC2CCOCC2)n2ncc3c(S(=O)(=O)C4CC4)cc(F)cc32)nc1` (stereo not drawn) [Compound 117, 6-(2-(4-(cycloproypylsulfonyl)-6-fluoro-1H-indazol-1-yl)-3-(tetrahydro-2H-pyran-4-yl)propanamido)nicotinamide], the EC50 was not above 0.316 µM. For the same molecule, the Emax under setting [1] is 106 to 110%.
In the case of `O=C(Nc1ncc(F)s1)[C@H](CC1CCOCC1)n1ncc2c(S(=O)(=O)C3CC3)cccc21` [Compound 69, (S)-2-(4-(cyclopropylsulfonyl)-1H-indazol-1-yl)-N-(5-fluorothiazol-2-yl)-3-(tetrahydro-2H-pyran-4-yl)propanamide], the EC50 was not above 0.316 µM. In addition, the Emax under setting [1] was 106 to 110%.
As for `Cn1ccc(NC(=O)[C@@H](CC2CCOCC2)n2ncc3c(S(=O)(=O)C4CC4)cccc32)n1` [Compound 118], the EC50 was not below 15.8 µM. Moreover, the Emax (read-out: % ACTmax, calculated maximal gain in GK enzyme activity at a saturating concentration of the compound) was not above 90%.
On to `O=C1CC[C@H](C[C@@H](C(=O)Nc2ncc(Cl)s2)n2ncc3c(S(=O)(=O)C4CC4)cccc32)C1` [Compound 113, (S)-N-(5-chlorothiazol-2-yl)-2-(4-(cyclopropylsulfonyl)-1H-indazol-1-yl)-3-((R)-3-oxocyclopentyl)propanamide], for which the EC50 is 0.398 to 1.26 µM. Also, under setting [1], the Emax was 101 to 105%.
On to `O=C(Nc1ncc(F)s1)C(CC1CCCC1)n1ncc2c(S(=O)(=O)C3CC3)cccc21` (stereo not drawn) [Compound 62, 3-cyclopentyl-2-(4-(cyclopropylsulfonyl)-1H-indazol-1-yl)-N-(5-fluorothiazol-2-yl)propanamide], for which the EC50 was in the range of 0.398 to 1.26 µM. In addition, under setting [1], the Emax was 90 to 100%.
The matching figures for `O=C(Nc1ncc(F)s1)[C@@H](CC1CCOCC1)n1ncc2c(S(=O)(=O)C3CC3)ccnc21` [Compound 139, (R)-2-(4-(cyclopropylsulfonyl)-1H-pyrazol[3,4-b]pyridin-1-yl)-N-(5-fluorothiazol-2-yl)-3-(tetrahydro-2H-pyran-4-yl)propanamide]: not below 15.8 µM and 106 to 110%.
